Source: US20230383261A1, “HEPATOCYTE-LIKE CELLS” (Sana Biotechnology, Inc., priority 2020, published 2023)

Tests used:
Format in all cases: cell-based, human
hepatocyte-like cells [1] = experiment: ureagenesis after ammonia challenge (Urea Assay Kit); settings: day 35, seven-day forskolin
Procedure: Human iPSCs were differentiated to hepatocyte-like cells essentially as described in […] et al., Nature Prot. 8(2):430-437 (2013) (Protocol A) or Blackford et al., Stem Cells Transl Med. 8(2):124-137 (2019) (Protocol B) with the following modifications: cells were maintained in the final medium until a total culture time of 35 days and HepatoZYME basal medium was substituted in Protocol B starting at day 8. Forskolin was added to the final medium at a concentration of […] on day 21 (Protocol A) or day 28 (Protocols A and B). Expression of hepatocyte and urea cycle genes was measured by qPCR and/or fluorescent Western blot analysis. Ureagenesis of the cells was assayed using Urea Assay Kit (BioChain). Ureagenesis activity was measured in day 35 cells from Protocol A and Protocol B following seven-day treatment with forskolin, following challenge of the hepatocyte-like cells with 0-16 mM ammonia. […] For Protocol A, ureagenesis activity peaked at stimulation with 5 mM ammonia treatment at about 20 nmol/min/10^6 cells, and levels were observed higher than those seen using primary human hepatocytes. For […], ureagenesis activity peaked at stimulation with 10 mM ammonia at a level similar to primary human hepatocytes, about 3 nmol/min/10^6 cells.

[2] = system: hepatocyte and urea cycle genes in hepatocyte-like cells; experiment: qPCR expression of hepatocyte and urea cycle genes in iPSC-derived hepatocyte-like cells (Protocols A and B)
Procedure: Human iPSCs were differentiated to hepatocyte-like cells essentially as described in […] et al., Nature Prot. 8(2):430-437 (2013) (Protocol A) or Blackford et al., Stem Cells Transl Med. 8(2):124-137 (2019) (Protocol B) with the following modifications: cells were maintained in the final medium until a total culture time of 35 days and HepatoZYME basal medium was substituted in Protocol B starting at day 8. Forskolin was added to the final medium at a concentration of […] on day 21 (Protocol A) or day 28 (Protocols A and B). Expression of hepatocyte and urea cycle genes was measured by qPCR and/or fluorescent Western blot analysis. Ureagenesis of the cells was assayed using Urea Assay Kit (BioChain).

hepatocyte-like cells [3] = experiment: urea production assay at day 35, 2D differentiation with forskolin; settings: forskolin about 5 μM to about 10 μM after the first 26 days, read at day 35
Procedure: Mature hepatocyte-like cells were differentiated from human pluripotent stem cells using a 2D differentiation protocol for the first 26 days of differentiation, and then the immature hepatocyte-like cells were cultured in media containing forskolin (ranging from about 5 μM to about 10 μM). At day 35, the activity for the hepatocytes was determined using a urea production assay.

[4] = system: hepatocyte-specific genes and urea cycle enzyme genes; experiment: gene expression in differentiation methods A, B and C with forskolin; settings: forskolin at days 21-35 or 30-35 (3D) or days 28-35 (2D)
Procedure: This example provides urea cycle gene expression of hepatocyte-like cells differentiated using three different methods, such as a 3D differentiation method with forskolin treatment at days 21-35 (method A), a 3D differentiation method with forskolin treatment at days 30-35 (method B), and a 2D differentiation method with forskolin treatment at days 28-35 (method C). The expression of the following genes were measured: alpha fetoprotein (AFP), albumin (ALB), arginase 1 (ARG1), asialoglycoprotein receptor 1 (ASGR1), agininosuccinate lyase (ASL), argininosuccinate synthase 1 (ASS1), carbamoyl-phosphate synthase 1 (CPS1), glucose-6-phosphatase (G6PC), hepatocyte nuclear factor 4 alpha (HNF4a), keratin type I cytoskeletal 18 (KRT18), […] (NAGS), ornithine transcarbamylase (OTC), and SOX9. Expression of cardiac-specific markers NKX2.5 and TNNT2 were used as a negative expression control.
In this study, forskolin treatment was included at days 21-35 of the 3D hepatocyte differentiation process outlined above, at days 30-35 of the 3D hepatocyte differentiation process outlined above, or days 28-35 of the 2D hepatocyte differentiation process outlined above. Gene expression of numerous hepatocyte and urea cycle markers was measured at different time points.

[5] = system: hepatocyte maturation genes and urea cycle genes in hepatocyte-like cells; experiment: Taqman qPCR gene expression, 3D differentiation protocol with or without forskolin; settings: 10 μM forskolin days 28 to 35, vs untreated
Procedure: In the process, the pluripotent stem cells differentiate through different stages including a definitive endoderm stage, an anterior definitive endoderm stage, a foregut endoderm stage, a hepatic endoderm stage, an immature hepatocyte stage, and a mature hepatocyte stage. […] All pluripotent cell lines robustly differentiated in the endoderm lineage in the 3D format, with all cell lines achieving a target efficiency of 90% CXCR4 expressing cells. Gene expression analysis was performed on hepatocyte-like cells produced by either (i) a 3D differentiation protocol or (ii) a 3D differentiation protocol with the addition of 10 μM forskolin from days 28 to day 35. Duplicate RNA samples were isolated at selected time point of the differentiation and gene expression was analyzed by Taqman qPCR.

hPSC-Heps spheroids = settings: for ammonia detoxification: media containing ammonia; for ammonia detoxification with excess arginine: media containing ammonia and arginine
Procedure: Human pluripotent stem cell-derived hepatocytes (hPSC-Heps) were obtained after 21 days of differentiation using a 2D adherent protocol. At day 21 the hPSC-Heps were aggregated into spheroids, and then encapsulated within alginate 48 hours later. The spheroids including the alginate encapsulated spheroids were cultured for 14 days in either vitamin K1, vitamin K2 MK4, […], vitamin E, or a combination of all. The spheroids were cultured at a concentration of about 1×10^6 encapsulated cells/ml for the culture period.

[6] = system: CYP3A4 activity in hepatocyte-like cells; experiment: CYP3A4 enzyme activity assay of hepatocyte maturation, media with or without HGF; settings: absence of HGF in the culture media after the first 14 days of 2D differentiation, vs media containing HGF
Procedure: Mature hepatocyte-like cells were differentiated from human pluripotent stem cells using a 2D differentiation protocol for the first 14 days of differentiation, and then the cells were cultured in media lacking recombinant HGF. At day 14, hepatocytes at the hepatic endoderm stage were dissociated and seeded into these plates in fully supplemented HepatoZYME-SFM media. 24 hours later the cells were cultured and maintained in media lacking recombinant HGF. Hepatocyte maturation was determined using a CYP3A4 enzyme activity assay.

## C=C[C@@]1(C)CC(=O)[C@]2(O)[C@@]3(C)[C@@H](O)CCC(C)(C)[C@@H]3[C@H](O)[C@H](OC(C)=O)[C@@]2(C)O1 [forskolin]
hepatocyte-like cells [1]; Protocol A, stimulation with 5 mM ammonia, higher than primary human hepatocytes
  peak ureagenesis activity: about 20 nmol/min/10^6 cells
hepatocyte-like cells [1]; printed Protocol A (second mention), stimulation with 10 mM ammonia, similar to primary human hepatocytes
  peak ureagenesis activity: about 3 nmol/min/10^6 cells
[2]; Protocol A, forskolin 10 mM at days 21-28, vs cells without forskolin, qPCR
  increase in urea cycle gene CPS1: 5-8 fold
[2]; Protocol A, forskolin 10 mM in medium at days 21-28, vs cells without forskolin, qPCR
  expression of hepatocyte-like cell genes (HNF4a, AFP, ALB, ASGR1): no significant effect
[2]; Protocol B, forskolin 10 mM at days 28-35, read at day 35, vs cells without forskolin
  enhancement of hepatocyte-like cell gene (HNF4a, ALB, ASGR1) expression: 2-4 fold
hepatocyte-like cells [3]
  ureagenesis activity of the differentiated mature hepatocyte: enhanced the ureagenesis activity
[4]
  expression of hepatocyte-specific and urea cycle enzyme genes including ALB, ARG1, ASGR1, ASL, CPS1, G6PC, HNF4a and/or NAGS: increased expression
[5]
  expression of hepatocyte maturation genes and urea cycle genes: increases in expression

## CC(C)=CCC/C(C)=C/CC/C(C)=C/CC/C(C)=C/CC/C(C)=C/CC/C(C)=C/CC/C(C)=C/CC1=C(C)C(=O)c2ccccc2C1=O [vitamin K2 MK7]
hPSC-Heps spheroids
  functional maturation status of the hepatocytes (urea synthesis): increased the functional maturation status

## CC(C)=CCC/C(C)=C/CC/C(C)=C/CC/C(C)=C/CC1=C(C)C(=O)c2ccccc2C1=O [vitamin K2]
hPSC-Heps spheroids
  ammonia detoxification: more effective at detoxifying ammonia
  ammonia detoxification with excess arginine: detoxified ammonia even faster

## CC(C)=CCC/C(C)=C/CC/C(C)=C/CC/C(C)=C/CC1=C(C)C(=O)c2ccccc2C1=O [vitamin K2 MK4]
hPSC-Heps spheroids
  functional maturation status of the hepatocytes (urea synthesis): increased the functional maturation status

## CC1=C(C/C=C(\C)CCC[C@H](C)CCC[C@H](C)CCCC(C)C)C(=O)c2ccccc2C1=O [vitamin K1]
hPSC-Heps spheroids
  functional maturation status of the hepatocytes (urea synthesis): increased the functional maturation status
  ammonia detoxification: more effective at detoxifying ammonia
  ammonia detoxification with excess arginine: detoxified ammonia even faster

## HGF: recombinant hepatocyte growth factor in culture media
[6]
  hepatocyte maturation (CYP3A4 enzyme activity): enhanced hepatocyte maturation
